Test results taken from US8623429B2, “Stabilized anthocyanin compositions” (Omnica GmbH, priority 2007, dated 2014).

Assay: Example 1: stability of bilberry extract anthocyanosides, 4 hours at 37° C., pH 7.0, with/without DHLA or GSH (HPLC)
Format: physicochemical
Conditions: for % left, GSH (4 hours) / Peak Area, GSH (4 hours): 20 mg reduced L-glutathione; for % left, GSH (4 hours) / Peak Area, GSH (4 hours) / % left, DHLA (4 hours) / Peak Area, DHLA (4 hours) / % left, Blank (4 hours) / Peak Area, Blank (4 hours): pH 7.0, 37° C.; for % left, DHLA (4 hours) / Peak Area, DHLA (4 hours): 30 mg dihydrolipoic acid; for Peak Area, Fresh (0 hours): bilberry extract 60 mg/100 ml sodium phosphate buffer pH 7.0, fresh sample; for % left, Blank (4 hours) / Peak Area, Blank (4 hours): unprotected

Row | Structure (SMILES) | % left, GSH (4 hours) [%] | Peak Area, GSH (4 hours) | % left, DHLA (4 hours) [%] | Peak Area, DHLA (4 hours) | Peak Area, Fresh (0 hours) | % left, Blank (4 hours) [%] | Peak Area, Blank (4 hours)
1 | Oc1cc(O)c2cc(O[C@@H]3OC[C@H](O)[C@H](O)[C@H]3O)c(-c3ccc(O)c(O)c3)[o+]c2c1 [Cn-3O-Ara, Cyanidin 3-o-arabinoside] | 79.5 | 293.7 | 70.2 | 258.4 | 369.6 | 38.5 | 142.3
2 | Oc1cc(O)c2cc(O[C@H]3OC[C@H](O)[C@H](O)[C@H]3O)c(-c3cc(O)c(O)c(O)c3)[o+]c2c1 [Dp-3O-Ara, Delphinidin 3-o-arabinoside] | 50.2 | 283.6 | 64.5 | 364.4 | 564.9 | 6.9 | 39.1
3 | COc1cc(-c2[o+]c3cc(O)cc(O)c3cc2O[C@@H]2OC[C@H](O)[C@H](O)[C@H]2O)cc(OC)c1O [Mv-3O-Ara, Malvidin 3-o-arabinoside] | 75.0 | 81.2 | 69.4 | 75.2 | 108.3 | 34.0 | 36.8
4 | COc1cc(-c2[o+]c3cc(O)cc(O)c3cc2O[C@@H]2O[C@H](CO)[C@H](O)[C@H](O)[C@H]2O)cc(OC)c1O [Mv-3O-Gal, Malvidin 3-o-galactoside] | 74.4 | 133.2 | 62.8 | 112.5 | 179.1 | 37.6 | 67.3
5 | COc1cc(-c2[o+]c3cc(O)cc(O)c3cc2O[C@@H]2O[C@H](CO)[C@@H](O)[C@H](O)[C@H]2O)cc(OC)c1O [Mv-3O-Glc, Malvidin 3-o-glucoside] | 73.7 | 336.2 | 63.0 | 287.4 | 455.9 | 36.1 | 164.7
6 | COc1cc(-c2[o+]c3cc(O)cc(O)c3cc2O[C@@H]2O[C@H](CO)[C@@H](O)[C@H](O)[C@H]2O)ccc1O [Pe-3O-Glc, Peonidin 3-o-glucoside] | 76.9 | 172.0 | 62.3 | 139.2 | 223.6 | 42.4 | 94.8
7 | COc1cc(-c2[o+]c3cc(O)cc(O)c3cc2O[C@@H]2OC[C@H](O)[C@H](O)[C@H]2O)cc(O)c1O.[Cl-] [Pt-3O-Ara, Petunidin 3-o-arabinoside] | 69.4 | 97.6 | 66.6 | 93.7 | 140.6 | 16.2 | 22.8
8 | COc1cc(-c2[o+]c3cc(O)cc(O)c3cc2O[C@@H]2O[C@H](CO)[C@@H](O)[C@H](O)[C@H]2O)cc(O)c1O [Pt-3O-Glc, Petunidin 3-o-glucoside] | 66.7 | 315.6 | 57.4 | 271.9 | 473.4 | 16.6 | 78.8
